Experimental data taken from patent US20130296539A1, “MAGNETIC RESONANCE IMAGING AGENTS FOR CALCIFICATION” (priority 2012, published 2013).

Experiments:
[1] = In-vivo UTE MRI of subcutaneously implanted HA crystals; conditions: mice, intravenous injection, minimum of 4 h of clearance; compared with microCT
Protocol: (§1) MRI can be performed on a 1.5 T GE Signa clinical scanner equipped with a custom low-pass birdcage coil (10 cm length, 6 cm diameter). The custom UTE sequence is based on previous work in the field {Irarrazabal, 1995; Song, 1998}.
50 mg of HA crystals is taken in 300 μL PBS, is implanted subcutaneously at right flank of anesthetized mice. UTE MRI is taken after implantation of HA crystal using TR/TE=200 msec/100 μsec, FOV=6 cm, slice thickness=5 mm, matrix size=256×256. 4 μmol of [Gd^3+-DOTA]-Thr-Pam-Na in 300 μL saline is injected intravenously. After 4 h of clearance, an UTE MRI is taken with same parameters.

[2] = Contrast agent concentration and TR dependence of UTE MRI signals; conditions: 5 mg HA, 1 h at RT, washed with PBS, UTE MRI TE=100 μsec
Protocol: as §1
5 mg HA is placed in 1.5 mL plastic Eppendorf tubes, then 0, 0.1, 1, 10, or 100 μM [Gd^3+-DOTA]-Thr-Pam-Na in 50 μL PBS is added to each. After vortexing 1 h at RT, the crystals are washed with 4×500 μL PBS and UTE MRI acquisition is performed using a fixed TE=100 μsec and varying TR of 17, 50, 200, 500 msec. Other acquisition parameters includes FOV=11 cm, slice thickness=10 mm, matrix size=256×256, NEX=2.

[3] = Quantitation of calcium salt specificity by UTE MRI; conditions: 10 μM in PBS, 1 h at RT, UTE MRI before and after washing crystals
Protocol: as §1
5 mg of HA or the phosphate, oxalate, carbonate, or pyrophosphate salts of calcium is placed in 1.5 ml Eppendorf tube and is incubated with 10 μM [Gd^3+-DOTA]-Thr-Pam-Na in 50 μL PBS for 1 h at RT with continuous vortexing. UTE MRI acquisition is performed pre- and post-washing with 4×500 μL PBS using TR=200 msec and TE=100 μsec. Other acquisition parameters includes FOV=9 cm, slice thickness=10 mm, matrix size=256×256, NEX=2.

[4] = In-vitro UTE and GRE MRI of HA crystals bound by contrast agent; conditions: short incubation with HA crystals in PBS, UTE sequence TR=200 msec, TE=100 μsec
Protocol: as §1
1 mM of [Gd^3+-DOTA]-Thr-Pam-Na is added to 5 mg of HA crystals in 50 μL PBS (pH 7.4) and is vortexed for 1 h at RT in a 1.5 mL Eppendorf tube. 5 mg HA in 1 mM of [Gd^3+-DOTA]-Thr and 50 μL PBS is used as a control. MRI, pre- and post-washing with 4×500 μL PBS, are acquired using an UTE sequence (TR=200 msec, TE=100 μsec) or conventional GRE sequence (TR=200 msec, TE=1.8 msec). Other acquisition parameters includes FOV=6 cm, slice thickness=5 mm, matrix size=256×256, NEX=4.

## [Gd^3+-DOTA]-Thr-Pam-Na
[1]
  In-vivo detection of HA crystals by UTE MRI: UTE MRI provides a sensitive detection of HA crystals in-vivo
[2]
  Lowest incubation concentration resulting in detectable signal enhancement: 1 µM
[3]
  Specificity for HA over other calcium salts: more than three fold higher specificity for HA over other calcium salts
[4]
  Detection of HA crystals by UTE MRI: able to detect HA crystals with high sensitivity
